Residues, ends and D or L forms follow the SMILES beside them.
System: male Wistar rats
Assay: Cold immersion tail withdrawal latency after intraperitoneal dosing
Type: in vivo, rat
Conditions: for Trial 1 Latency (s), post-treatment cold immersion response / Trial 2 Latency (s), post-treatment cold immersion response / Trial 3 Latency (s), post-treatment cold immersion response: from 30 min post-dose, -20° C bath
Method: Three male Wistar rats at 8 weeks of age (Taconic Farms, Germantown, N.Y.) were utilized in the experiment. Each rat was grasped firmly, while the distal half of its tail was immersed in a liquid bath at a temperature of −20° C. Latency periods (in seconds) were measured from the time that tails were immersed to the time that the rat removed its tail from the liquid. Prior to dosing, rats were given three trials, approximately ten minutes apart. […] Post-dose trials were also approximately ten minutes apart. Animals were examined for acute adverse effects to both the cold liquid bath and the test article.

In the case of CCOC(=O)C1CCCN1C(=O)C(N)Cc1ccc(O)cc1 (stereo not drawn) [Tyr-Pro-Ethyl] (H-Tyr-Pro-OEt; configuration not given here), the “Mean latency of three trials, post-treatment cold immersion response” value (“Mean latency of three trials” for short) (animal 1, 1 mg i.p.) is reported as 15.6 s, the “Post-treatment mean with longest latency period eliminated” value (“Post-treatment mean” for short) (animal 1, 1 mg i.p.) is reported as 12.4 and the “Trial 1 Latency (s), post-treatment cold immersion response” value (from here on “Trial 1 Latency (s)”) (animal 1, 1 mg i.p.) is reported as 13.2 s. For the same compound, the “Trial 2 Latency (s), post-treatment cold immersion response” value (“Trial 2 Latency (s)” below) (animal 1, 1 mg i.p.) was 22.1 s, the “Trial 3 Latency (s), post-treatment cold immersion response” value (shortened to “Trial 3 Latency (s)”) (animal 1, 1 mg i.p.) was 11.5 s and the “Mean latency of three trials” value (animal 2, 2 mg i.p.) was 7.2 s. For the same compound, the “Post-treatment mean” value (animal 2, 2 mg i.p.) was 4.7, the “Trial 1 Latency (s)” value (animal 2, 2 mg i.p.) was 4.7 s and the “Trial 2 Latency (s)” value (animal 2, 2 mg i.p.) was 4.7 s. For the same compound, the “Trial 3 Latency (s)” value (animal 2, 2 mg i.p.) was 12.2 s, the “Mean latency of three trials” value (animal 3, 0.5 mg i.p.) was 7.2167 s and the “Post-treatment mean” value (animal 3, 0.5 mg i.p.) was 6.3. The “Trial 1 Latency (s)” value (animal 3, 0.5 mg i.p.) was 6.45 s, the “Trial 2 Latency (s)” value (animal 3, 0.5 mg i.p.) was 6.2 s and the “Trial 3 Latency (s)” value (animal 3, 0.5 mg i.p.) was 9.0 s. For the same compound, the “Crossing of the BBB” value (rats, at the doses given (0.5, 1, 2 mg i.p.), inferred from latency data) was “able to cross the BBB”, the Hydrolysis by esterases (rats, cerebrospinal fluid, inferred from latency data) was “hydrolyzed by esterases in the cerebrospinal fluid” and the “Effect on sensitivity to noxious stimulus” value (rats, cold immersion, 0.5, 1, 2 mg i.p.) was “increase sensitivity to noxious stimulus”.

— patent US20130072438A1, “OPIOID PEPTIDE ESTERS AND METHODS OF USE” (The United States Government as represented by the …, priority 2011, published 2013)
